From US20220146526A1, “METHOD FOR EVALUATING SAMPLE, ANALYSIS METHOD, METHOD FOR DETECTING DEGRADED SAMPLE, MARKER FOR DETECTING DEGRADED BLOOD PLASMA SAMPLE, AND MARKER FOR DETECTING DEGRADED SERUM SAMPLE” (SHIMADZU CORPORATION, priority 2019, published 2022)
Where a name gives a salt, the structure may show the parent alone. Blank lines part the entries; values can stand above or below the compound they belong to.

Legend:
Format in all cases: physicochemical, human
[1] = GC/MS of serum sample: number of times of freezing and thawing (Table I); design: key to Rate of increase or decrease / Rate of increase or decrease (first value, increase): detection intensity relative to 2 freeze-thaw cycles = 1; conditions: serum, GC/MS; for Rate of increase or decrease: detection intensity relative to 1 at 2 times; for Increase or decrease: detection intensity
Description: (§1) After standing, the blood sample was subjected to centrifugation under a condition of room temperature, 3500 rpm, and 5 minutes. […] After centrifugation, the blood-collecting vessel was left to stand at room temperature, and the serum was isolated during this time. Here, in order to investigate how the detection intensity of molecules contained in the sample was affected in cases where the time during which the blood-collecting vessel was left at room temperature was set to 1 hour and 6 hours as compared to that in a case where the time was set to 30 minutes, preparations were performed under the respective conditions of 30 minutes, 1 hour, and 6 hours. The obtained serum sample was frozen and stored. Here, in order to investigate how the detection intensity of molecules contained in the sample was affected in cases where freezing and thawing was performed 4 times, 6 times, and 10 times after freezing as compared to that in a case where freezing and thawing was performed 2 times after freezing, freezing and thawing was performed under the respective conditions of 2, 4, 6, and 10 times.
(§2) Frozen blood plasma samples and serum samples were subjected to GC/MS or LC/MS. In GC/MS, the blood plasma samples and serum samples were subjected to methoxymation and trimethylsilylation and then introduced to GC-MS.
(§3) GC/MS was conducted using GCMS·TQ8040 (Shimadzu Corporation) that was a GC·MS equipped with AOC·20i (Shimadzu Corporation) as an autosampler.
(§4) Column: BPX5 (inner diameter of 0.25 mm, length of 30 m, and film thickness of 0.25 μm) (SGE)
(§5) Column temperature: maintained at 60° C. for 2 minutes, then raised at 15° C./min, and maintained at 330° C. for 3 minutes.
(§6) Inlet temperature: 250° C.
(§7) Carrier gas control mode: constant linear velocity of 39.0 cm/sec
(§8) Sample introduction method: split (split ratio of 30:1) Injection volume: 1 μL
(§9) Ionization method: electron ionization
(§10) Ionization current: 60 μA
(§11) Interface temperature: 280° C.
(§12) Ion source temperature: 200° C.
(§13) Mode: multiple reaction monitoring (MRM)
The rate of increase or decrease in Table I is the value of detection intensity relative to 1 that is the detection intensity in a case where the number of times of freezing and thawing is set to 2 times.

[2] = GC/MS of blood plasma sample: time from blood collection to centrifugation (Table A); conditions: blood collection to centrifugation; for Rate of increase or decrease: detection intensity relative to 1 at 15 minutes; for Increase or decrease: detection intensity
Description: (§14) At room temperature, 5 mL of blood from a healthy subject was taken into a blood-collecting vessel containing EDTA, and the blood-collecting vessel was inverted for mixing, then cooled, and allowed to stand at 4° C. Here, in order to investigate how the detection intensity of molecules contained in the sample was affected in a case where the time to cooling was set to 5 minutes or more as compared to that in a case where the time to cooling was set to 1 minute or less, preparations were performed under both the former condition and the latter condition. After standing, the blood sample was subjected to centrifugation under a condition of 4° C., 3000 rpm, and 15 minutes. […] After centrifugation, the blood-collecting vessel was left to stand at room temperature for 30 minutes, and the blood plasma was isolated during this 30 minutes. The obtained blood plasma sample was frozen and stored. Here, in order to investigate how the detection intensity of molecules contained in the sample was affected in cases where freezing and thawing was performed 4 times, 6 times, and 10 times after freezing as compared to that in a case where freezing and thawing was performed 2 times after freezing, freezing and thawing was performed under the respective conditions of 2, 4, 6, and 10 times.
as §2, §3, §4, §5, §6, §7, §8, §9, §10, §11, §12, §13
The rate of increase or decrease in Table A is the value of detection intensity relative to 1 that is the detection intensity in a case where the time from blood collection to centrifugation is set to 15 minutes.

[3] = GC/MS of serum sample: time from centrifugation to isolation (Table H); design: key to Rate of increase or decrease / Rate of increase or decrease (first value, increase): detection intensity relative to 1 at 30 min centrifugation-to-isolation; conditions: for Rate of increase or decrease: detection intensity relative to 1 at 30 minutes; for Increase or decrease: detection intensity
Description: as §1, §2, §3, §4, §5, §6, §7, §8, §9, §10, §11, §12, §13
The rate of increase or decrease in Table H is the value of detection intensity relative to 1 that is the detection intensity in a case where the time from centrifugation to isolation is set to 30 minutes.

[4] = GC/MS of blood plasma sample: number of times of freezing and thawing (Table C); conditions: for Rate of increase or decrease: detection intensity relative to 1 at 2 times; for Increase or decrease: detection intensity
Description: as §14, §2, §3, §4, §5, §6, §7, §8, §9, §10, §11, §12, §13
The rate of increase or decrease in Table C is the value of detection intensity relative to 1 that is the detection intensity in a case where the number of times of freezing and thawing is set to 2 times.

[5] = LC/MS of blood plasma sample: time from blood collection to centrifugation (Table D); conditions: for Increase or decrease: detection intensity, blood collection to centrifugation, after 12 hours vs 15 minutes; for Rate of increase or decrease (second value, decrease) / Rate of increase or decrease (first value, increase): different from individual to individual, relative to 1 at 15 minutes, collection to centrifugation, after 12 hours; for Rate of increase or decrease (second value, decrease): individuals with decrease; for Rate of increase or decrease (first value, increase): individuals with increase
Description: as §14, §2
(§15) Analysis column: Discovery HS F5-3 (inner diameter of 2.1 mm, length of 150 mm, film thickness of 3 μm) (Sigma-Aldrich)
(§16) Column temperature: 40° C.
(§17) (A) 0.1% formic acid (dissolved in water)
(§18) (B) 0.1% formic acid (dissolved in acetonitrile)
(§19) Flow velocity: 0.25 mL/min
(§20) Ionization method: electrospray
(§21) Temperature: • Desolvation Line (DL) temperature: 250° C. • Heat block temperature: 400° C. • Interface temperature: 300° C.
(§22) Gas flow rate: • Nebulizer gas flow rate: 3.0 L/min • Drying gas flow rate: 10.0 L/min • Heating gas flow rate: 10.0 L/min
as §13
The rate of increase or decrease in Table D is the value of detection intensity relative to 1 that is the detection intensity in a case where the time from blood collection to centrifugation is set to 15 minutes.

[6] = LC/MS of serum sample: number of times of freezing and thawing (Table M); design: key to Rate of increase or decrease: detection intensity relative to 1 at 2 freeze-thaw cycles; conditions: for Rate of increase or decrease: 6 times of freezing and thawing; for Number of times when compound is affected / Increase or decrease: serum sample, LC/MS; for Number of times when compound is affected: detection intensity changed by 30% or more vs 2 times of freezing and thawing; for Increase or decrease: detection intensity vs 2 times of freezing and thawing
Description: as §1, §2, §15, §16, §17, §18, §19, §20, §21, §22, §13
The rate of increase or decrease in Table M is the value of detection intensity relative to 1 that is the detection intensity in a case where the number of times of freezing and thawing is set to 2 times.

[7] = GC/MS of serum sample: time from blood collection to centrifugation (Table G); conditions: blood collection to centrifugation; for Rate of increase or decrease: detection intensity relative to 1 at 15 minutes; for Increase or decrease: detection intensity
Description: as §1, §2, §3, §4, §5, §6, §7, §8, §9, §10, §11, §12, §13
The rate of increase or decrease in Table G is the value of detection intensity relative to 1 that is the detection intensity in a case where the time from blood collection to centrifugation is set to 15 minutes.

[8] = freezing and thawing 10 times vs 2 times
[9] = freezing and thawing 4 times vs 2 times

Compound: CCCCC/C=C\C/C=C\C/C=C\C/C=C\CCCC(=O)O [Arachidonic acid]
- Rate of increase or decrease ([1]; freezing and thawing 10 times): 1.52
- Increase or decrease [1, 8]: Increase
- Rate of increase or decrease ([2]; after 4 hours): 1.56
- Increase or decrease ([2]; after 4 hours vs 15 minutes): Increase

Compound: NCCc1c[nH]c2ccccc12 [Tryptamine]
- Rate of increase or decrease ([4]; freezing and thawing 10 times): 0.69
- Increase or decrease [4, 8]: Decrease

Compound: CCCCCCCC/C=C\CCCCCCCC(=O)O [Oleic acid]
- Rate of increase or decrease ([2]; after 12 hours): 4.05
- Increase or decrease ([2]; after 12 hours vs 15 minutes): Increase

Compound: O=C(O)C=C(CC(=O)O)C(=O)O [Aconitic acid]
- Rate of increase or decrease ([3]; after 1 hour): 0.04
- Increase or decrease ([3]; after 1 hour vs 30 minutes): Decrease
- Rate of increase or decrease ([7]; after 4 hours): 1.52
- Increase or decrease ([7]; after 4 hours vs 15 minutes): Increase
- Rate of increase or decrease ([2]; after 4 hours): 0.41
- Increase or decrease ([2]; after 4 hours vs 15 minutes): Decrease

Compound: N[C@@H](Cc1c[nH]c2ccccc12)C(=O)O [Tryptophan]
- Increase or decrease [5]: Different from individual
- Rate of increase or decrease (second value, decrease) [5]: 0.66
- Rate of increase or decrease (first value, increase) [5]: 1.62
- Rate of increase or decrease ([6]; detection intensity relative to 1 at 2 times): 0.66
- Number of times when compound is affected [6]: 6 times
- Increase or decrease [6]: Decrease

Compound: CCCCCCCCCCCCCC(=O)O [Myristic acid]
- Rate of increase or decrease ([7]; after 8 hours): 1.30
- Increase or decrease ([7]; after 8 hours vs 15 minutes): Decrease
- Rate of increase or decrease ([2]; after 12 hours): 1.55
- Increase or decrease ([2]; after 12 hours vs 15 minutes): Increase

Second part, the compound after the results:

- Rate of increase or decrease ([3]; after 1 hour): 2.06
- Increase or decrease ([3]; after 1 hour vs 30 minutes): Increase
- Rate of increase or decrease ([1]; freezing and thawing 4 times): 0.63
- Increase or decrease [1, 9]: Decrease
- Rate of increase or decrease ([4]; freezing and thawing 4 times): 1.56
- Increase or decrease [4, 9]: Increase
Compound: OB(O)O [Boric acid]

- Increase or decrease [5]: Different from individual
- Rate of increase or decrease (second value, decrease) [5]: 0.65
- Rate of increase or decrease (first value, increase) [5]: 1.53
- Rate of increase or decrease ([3]; after 6 hours): 1.60
- Increase or decrease ([3]; after 6 hours vs 30 minutes): Increase
- Rate of increase or decrease ([1]; freezing and thawing 10 times): 2.63
- Increase or decrease [1, 8]: Increase
- Rate of increase or decrease ([6]; relative to 1 at 2 times, different from individual to individual, first value (increase)): 1.31
- Rate of increase or decrease ([6]; relative to 1 at 2 times, different from individual to individual, second value (decrease)): 0.61
- Number of times when compound is affected [6]: 6 times
- Increase or decrease [6]: Different from individual
Compound: CCC(N)C(=O)O (stereo not drawn) [2-Aminobutyric acid]

- Rate of increase or decrease ([4]; freezing and thawing 6 times): 0.68
- Increase or decrease ([4]; freezing and thawing 6 times vs 2 times): Decrease
- Rate of increase or decrease ([2]; after 12 hours): 1.50
- Increase or decrease ([2]; after 12 hours vs 15 minutes): Increase
Compound: O=S(=O)(O)Oc1c[nH]c2ccccc12 [Indoxyl sulfate]
